# Laboratory results as given in patent US7612071B2, “Compositions and methods employing aminopterin” (Syntrix Biosystems, Inc., priority 2004, dated 2009).
# Where two headings read alike, the source gives them in different places.
# What was measured:
# [1] = Interpatient coefficient of variation of oral bioavailability; type: in vivo; conditions: human, plasma, 2 mg/m2; AMT 2 mg/m^2 PO, pediatric and adult patients, n=27
# Description: The term “interpatient coefficient of variation of oral bioavailability” as used herein refers to the coefficient of variation of oral bioavailability in a population of at least two patients, wherein the oral bioavailability is determined at least once for each patient in the population. Specifically, it is the standard deviation of oral bioavailability in the population divided by the interpatient oral bioavailability, expressed as a percent. […] It is sufficient to use a representative number of patients from a particular patient population to establish the interpatient coefficient of variation of oral bioavailability for that population, where at least 5 patients will be required in order to establish the interpatient coefficient of variation of oral bioavailability of a population.
# The standard deviation of oral bioavailability and interpatient oral bioavailability were determined among 27 matched patients.
# Pharmacol. 10(1):36, 1982].
# [2] = Storage of aqueous compositions; type: physicochemical; conditions: parenteral, oral liquid or other aqueous compositions
# Description: Because of their ease of administration, tablets and capsules represent the most advantageous oral dosage form in adults, in which case solid pharmaceutical carriers are employed. If desired, tablets may be coated by standard aqueous or nonaqueous techniques. The parenteral dosage form can consist of a sterile solution of the active ingredient, either in its free or salt form, in physiological buffer or sterile water. In addition, parenteral solutions can contain preservatives such as benzalkonium chloride, methyl- or propyl-paraben and chlorobutanol. Suitable pharmaceutical carriers are described in Remington's Pharmaceutical Sciences, a standard reference text in this field. […] Accordingly, such aqueous compositions are best stored desiccated and hydrated within several hours to several days prior to patient administration.
# [3] = target: T1, partially purified chicken liver DHFR (Gallus gallus, UniProt P00378); assay: Radioligand DHFR binding assay; conditions: aminopterin compared with methotrexate
# T1 sequence (P00378 1-189): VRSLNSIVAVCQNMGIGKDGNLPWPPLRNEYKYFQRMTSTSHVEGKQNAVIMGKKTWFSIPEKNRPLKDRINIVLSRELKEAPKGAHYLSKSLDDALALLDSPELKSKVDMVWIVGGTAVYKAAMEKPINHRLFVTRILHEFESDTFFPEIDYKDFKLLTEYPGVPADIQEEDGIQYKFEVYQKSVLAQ
# [4] = prior art; cited from earlier work
# [5] = Potency relative to methotrexate; conditions: therapeutically effective amount for the same level of efficacy
# [6] = AMT 2 mg/m^2, adult patients, n=13, prior art; cited from earlier work
# [7] = test system: standard and high-risk ALL; conditions: for Coefficient of variation of toxicity of aminopterin as percent of that of methotrexate: both oral; for Therapeutic Component: Percentage effective (no evidence of a disease manifestation): greater than 12 months treatment, AMT 4 mg/m^2/wk high risk ALL (n=20), MTX 100 mg/m^2/wk standard risk ALL (n=20)
# [8] = Interpatient oral bioavailability in patients (oral vs intravenous AUC, matched); type: in vivo; conditions: human, plasma
# Description: The term “interpatient oral bioavailability” as used herein refers to the mean oral bioavailability in a population of at least two patients, wherein the oral bioavailability is determined at least once for each patient in the population. The interpatient oral bioavailability may be calculated by dividing the mean population AUC after oral dosing by the mean population AUC after intravenous dosing, wherein the oral and intravenous doses are identical, and expressing the ratio as a percent. In a preferred method, the interpatient oral bioavailability is calculated using matched samples by averaging the oral bioavailabilities obtained for each patient. More specifically, the oral bioavailability is obtained for each patient by dividing the AUC after oral dosing the patient by the AUC after intravenous dosing the same patient with the same dose of antifolate (i.e. the oral and intravenous AUC in each patient are matched and the patients are said to be matched). The interpatient oral bioavailability based on these matched patients is then simply the mean population oral bioavailability expressed as a percent. […] It is sufficient to use a representative number of patients from a particular patient population to establish an interpatient oral bioavailability for that population, where at least 5 patients will be required in order to establish an interpatient oral bioavailability of a population.
# The term “oral bioavailability” as used herein refers to the fraction of an antifolate dose given orally that is absorbed into the plasma after a single administration to a patient. A preferred method for determining the oral bioavailability is by dividing the AUC of an antifolate dose given orally by the AUC of the same antifolate dose given intravenously to the same patient, and expressing the ratio as a percent. […]
# [9] = AMT 2 mg/m^2 PO x 2 (n=75), MTX 25 mg/m^2 PO x 4 (n=41)
# [10] = AMT 2 mg/m^2 PO x 2 (n=81), MTX 25 mg/m^2 PO x 4 (n=42)
# [11] = AMT 2 mg/m^2 PO x 2 (n=104), MTX 25 mg/m^2 PO x 4 (n=63)
# [12] = AMT 2 mg/m^2 PO x 2, MTX 25 mg/m^2 PO x 4
# [13] = eAMT and eMTX (marrow exposure)
smiles,measurement,setting,value
Nc1nc(N)c2nc(CNc3ccc(C(=O)N[C@@H](CCC(=O)O)C(=O)O)cc3)cnc2n1 [AMT],Interpatient coefficient of variation of oral bioavailability,[1],42%
same,stability of aqueous compositions (conversion of aminopterin to folic acid),[2],accumulate folic acid to undesirable levels over the course of six months of storage
same,displacement of tritiated methotrexate and binding to DHFR,[3],equivalent
same,potency relative to methotrexate,[4],at least 10 times
same,potency relative to methotrexate,[5],about 25 times
same,Interpatient oral bioavailability (%),[6],85%
same,Maximum (%) oral bioavailability,[6],163%
same,Minimum (%) oral bioavailability,[6],32%
same,"Event-free survival (EFS) at 24-months, Kaplan Meier","[7]; 25 high risk patients receiving aminopterin, standard risk patients receiving methotrexate",93%
same,"Coefficient of variation of toxicity, absolute neutrophil count in consolidation",[7]; [9],80%
same,Mean absolute neutrophil count in consolidation,[7]; [9],1667 cells/μL
same,"Coefficient of variation of toxicity, platelet counts in consolidation",[7]; [10],58%
same,Mean platelet counts in consolidation,[7]; [10],316 cells × 10^3/μL
same,"Coefficient of variation of toxicity, level of liver enzymes above normal",[7]; [11],25%
same,Mean level of liver enzymes above normal,[7]; [11],188 IU/L ALT
same,"Coefficient of variation of toxicity, level of liver enzymes above normal","[7]; AMT 2 mg/m^2 PO x 2 (n=104), MTX 25 mg/m^2 PO x 4 (n=63), listed as aminopterin",25%
same,"Coefficient of variation Relative To The Invention, absolute neutrophil count in consolidation",[7]; [12],1.0
same,"Coefficient of variation Relative To The Invention, level of liver enzymes above normal",[7]; [12],1.0
same,"Coefficient of variation Relative To The Invention, platelet counts in consolidation",[7]; [12],1.0
same,Patients with severe hepatotoxicity (liver enzyme elevations greater than five times normal),"[7]; AMT 4 mg/m^2/wk (n=104), MTX 100 mg/m^2/wk (n=63)",5.8%
same,Therapeutic Component: Antifolate dose,"[7]; AMT high risk ALL (n=20), MTX standard risk ALL (n=20), Table V",4 mg/m^2/wk:
same,Therapeutic Component: Antifolate dose with same efficacy as MTX at 100 mg/m^2/wk,"[7]; AMT high risk ALL (n=20), MTX standard risk ALL (n=20), Table VI",4 mg/m^2/wk
same,Therapeutic Index,[7]; Any elevation of liver enzymes,1
same,Toxicity Component: Antifolate dose with same toxicity as MTX at 100 mg/m^2/wk,[7]; Any elevation of liver enzymes,4 mg/m^2/wk
same,Therapeutic Index,[7]; Elevations in liver enzymes >5 times normal,1
same,Toxicity Component: Antifolate dose causing 5.8% of the population to have the toxicity,[7]; Elevations in liver enzymes >5 times normal (severe hepatotoxicity),4 mg/m^2/wk
same,Therapeutic Index,[7]; Hospital admissions,1
same,Toxicity Component: Antifolate dose with same toxicity as MTX at 100 mg/m^2/wk,[7]; Hospital admissions,4 mg/m^2/wk
same,Therapeutic Index,[7]; Mucositis,1
same,Toxicity Component: Antifolate dose with same toxicity as MTX at 100 mg/m^2/wk,[7]; Mucositis,4 mg/m^2/wk
same,Therapeutic Index,[7]; Myelosuppression,1
same,Toxicity Component: Antifolate dose with same toxicity as MTX at 100 mg/m^2/wk,[7]; Myelosuppression,4 mg/m^2/wk
same,Therapeutic Index,[7]; Neutropenia,1
same,Toxicity Component: Antifolate dose with same toxicity as MTX at 100 mg/m^2/wk,[7]; Neutropenia,4 mg/m^2/wk
same,Therapeutic Index,[7]; Thrombocytopenia,1
same,Toxicity Component: Antifolate dose with same toxicity as MTX at 100 mg/m^2/wk,[7]; Thrombocytopenia,4 mg/m^2/wk
same,Therapeutic Index,[7]; Treatment interruptions,1
same,Toxicity Component: Antifolate dose with same toxicity as MTX at 100 mg/m^2/wk,[7]; Treatment interruptions,4 mg/m^2/wk
same,Therapeutic Index,[7]; [13],1
same,Toxicity Component: Antifolate dose with same toxicity as MTX at 100 mg/m^2/wk,[7]; [13],4 mg/m^2/wk
same,Coefficient of variation of toxicity of aminopterin as percent of that of methotrexate,"[7]; elevated liver enzymes, 2 mg/m^2 aminopterin vs 25 mg/m^2 methotrexate",71%
same,Coefficient of variation of toxicity of aminopterin as percent of that of methotrexate,"[7]; erythrocyte antifolate levels, 2 mg/m^2 aminopterin vs 20 mg/m^2 methotrexate",12.4%
same,Survival rate of high risk patients vs standard risk patients treated with equipotent methotrexate,"[7]; follow-up period of up to 15 months, 20 patients per arm",equivalent survival rate
same,Therapeutic Component: Percentage effective (no evidence of a disease manifestation),[7],100% effective at
same,Therapeutic Component: Percentage effective (no evidence of a disease manifestation),[7]; listed as aminopterin,100%
same,bioavailability,"[8]; 2 mg/m2, AMT 2 mg/m^2, pediatric patients (age 0-21), 15 matched patients, read-out: Interpatient oral bioavailability (%)",94%
same,bioavailability,"[8]; 2 mg/m2, AMT 2 mg/m^2, pediatric patients, n=15, read-out: Maximum (%) oral bioavailability",165%
same,bioavailability,"[8]; 2 mg/m2, AMT 2 mg/m^2, pediatric patients, n=15, read-out: Minimum (%) oral bioavailability",45%
